Measured values taken from US9266817B2, “Catecholamine derivatives for obesity and neurological disorders” (EMORY UNIVERSITY, priority 2009, dated 2016).
Entries after “also recorded” stand apart in the source; their conditions may differ.

Legend:
TrkB F616A [1] = target: T1, TrkB F616A (Mus musculus, UniProt P15209, F616A); experiment: TrkB phosphorylation in TrkB F616A or TrkA F592A cortical neurons pretreated with K252a or 1NMPP1; assay type: cell-based, mice; details: primary TrkB F616A cortical neurons, 100 nM inhibitor 30 min, 500 nM compound
T1 construct: endogenous in cells; host or cells: primary cortical neurons from TrkB F616A knock-in mice
T1 sequence (P15209 32-821 F616A): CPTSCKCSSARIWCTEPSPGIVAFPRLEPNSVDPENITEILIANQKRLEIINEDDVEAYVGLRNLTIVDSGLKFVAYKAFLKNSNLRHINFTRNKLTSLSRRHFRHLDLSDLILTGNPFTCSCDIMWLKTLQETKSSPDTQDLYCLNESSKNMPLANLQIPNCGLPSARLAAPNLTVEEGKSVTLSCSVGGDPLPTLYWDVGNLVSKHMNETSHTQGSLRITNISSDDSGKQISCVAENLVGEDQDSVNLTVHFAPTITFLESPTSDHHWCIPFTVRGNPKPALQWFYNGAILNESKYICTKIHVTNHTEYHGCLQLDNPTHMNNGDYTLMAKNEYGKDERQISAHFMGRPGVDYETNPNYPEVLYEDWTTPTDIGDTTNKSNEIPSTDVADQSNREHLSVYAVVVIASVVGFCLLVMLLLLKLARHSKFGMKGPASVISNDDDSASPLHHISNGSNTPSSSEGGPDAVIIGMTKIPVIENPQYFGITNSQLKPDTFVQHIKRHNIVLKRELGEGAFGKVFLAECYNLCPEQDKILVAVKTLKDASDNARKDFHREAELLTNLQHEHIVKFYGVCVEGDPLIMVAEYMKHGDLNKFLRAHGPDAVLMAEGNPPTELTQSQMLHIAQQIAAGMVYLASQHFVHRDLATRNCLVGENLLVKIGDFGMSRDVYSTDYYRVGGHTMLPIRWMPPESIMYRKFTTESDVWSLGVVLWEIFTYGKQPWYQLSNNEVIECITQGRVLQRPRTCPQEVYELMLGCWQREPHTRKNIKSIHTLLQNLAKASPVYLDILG
Protocol: (§1) TrkB F616A mice were pretreated with 1NMPP1 (50 μM) before L-DOPA or DOPS administration.
(§2) On day 7, the primary cortical neurons were pretreated with 100 nM K252a or 1NMPP1 for 30 min, followed by 500 nM ADPP and DDAP. Cell lysates were analyzed by Western blotting.

TrkB [2] = target: T2, TrkB (Rattus norvegicus, UniProt Q63604); experiment: Screening of catecholamine derivatives for TrkB activation in primary cortical neurons (anti-p-TrkB-Y-816 immunoblot); assay type: cell-based; details: 500 nM, 30 min
T2 construct: endogenous in cells; host or cells: primary rat cortical and hippocampal neurons
T2 sequence (Q63604 32-821): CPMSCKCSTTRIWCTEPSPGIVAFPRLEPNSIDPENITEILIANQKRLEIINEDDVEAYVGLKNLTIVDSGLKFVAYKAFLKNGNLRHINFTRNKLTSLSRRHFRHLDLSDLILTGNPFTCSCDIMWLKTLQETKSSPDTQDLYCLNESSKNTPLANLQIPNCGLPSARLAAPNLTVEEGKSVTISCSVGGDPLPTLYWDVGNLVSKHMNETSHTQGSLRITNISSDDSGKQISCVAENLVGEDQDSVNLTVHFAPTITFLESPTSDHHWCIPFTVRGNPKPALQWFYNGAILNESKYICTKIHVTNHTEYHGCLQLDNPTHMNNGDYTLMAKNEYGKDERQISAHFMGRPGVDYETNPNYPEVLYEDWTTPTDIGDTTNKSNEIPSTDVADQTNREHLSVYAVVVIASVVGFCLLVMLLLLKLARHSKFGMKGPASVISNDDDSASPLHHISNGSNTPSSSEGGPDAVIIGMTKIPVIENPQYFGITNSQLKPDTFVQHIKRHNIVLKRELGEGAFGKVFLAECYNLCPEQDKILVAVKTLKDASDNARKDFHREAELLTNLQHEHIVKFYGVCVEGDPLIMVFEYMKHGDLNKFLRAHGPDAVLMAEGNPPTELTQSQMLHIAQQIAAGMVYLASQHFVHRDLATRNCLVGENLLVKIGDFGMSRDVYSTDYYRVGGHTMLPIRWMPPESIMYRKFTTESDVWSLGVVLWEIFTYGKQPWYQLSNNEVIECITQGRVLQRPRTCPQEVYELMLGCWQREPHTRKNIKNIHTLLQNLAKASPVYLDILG
Protocol: Catecholamines can directly bind to the kinase domain of the TrkB receptor and activate it. However, the catecholamines are not able to cross through the blood brain barrier. […] Cortical neurons (7 DIV cortical neurons from 18 day old Sprague Dawley rat embryos) were treated with 500 nM of the selected compound for 30 min and cell lysates were prepared. The cell lysates ([…]) were analyzed for TrkB activation by immunoblotting with anti-p-TrkB-Y-816 antibody.
Catecholamine derivatives as described herein, including Compound I-2, Compound I-5, Compound I-7, Compound I-8, Compound I-9, Compound I-10, Compound I-11, Compound I-14, Compound I-15, Compound I-17, Compound I-18, and isoproterenol, were screened for TrkB activation in primary cortical neurons. Cortical neurons (7 DIV cortical neurons from 18 day old Sprague Dawley rat embryos) were treated with 500 nM of the selected compound for 30 min and cell lysates were prepared. The cell lysates ([…]) were analyzed for TrkB activation by immunoblotting with anti-p-TrkB-Y-816 antibody.

TrkB [3] = experiment: TrkB activation in mouse brain after administration of catecholamine derivatives (anti-p-TrkB-Y-816 immunoblot); assay type: in vivo; details: for Time at which TrkB activity peaked: 50 mg/kg orally; for TrkB activation in the brains of the mice: 50 mg/kg orally (in saline), C57BL/6J mice; for Oral bioavailability: mice; for Minimal dosage required to activate TrkB: orally, mice sacrificed after 4 hours; for TrkB activation in mouse brains: via drinking water or intraperitoneal injection
Protocol: To explore whether these compounds could stimulate TrkB in vivo, 50 mg/kg of Compound I-11, Compound I-8, and Compound I-2 (2-(methylamino)-3′,4′-dihydroxy-acetophenone) were each orally administered (in saline) to 2-month-old C57BL/6J mice. The mice were sacrificed at different time points and TrkB activation in the brains of the mice was monitored by immunoblotting with anti-p-TrkB-Y-816 antibody.
To determine the minimal required dosages for Compound I-11 and Compound I-8, different doses of the compounds were each orally administered to mice. The mice were sacrificed after 4 hours, and the brain lysates were analyzed by immunoblotting with anti-p-TrkB-Y-816 antibody.
To search for orally bioactive catecholamines, catecholamine derivatives described herein were screened using primary neuronal cultures. The in vitro active compounds, Compounds I-8 and I-11, were adminstered into two to three month old C57BL/6J mice orally, intraperitoneally, and in drinking water. For oral administration, the mice were administered 0 mg (control), 5 mg, 10 mg, 20 mg, or 50 mg of Compound I-8 or Compound I-11. After 4 hours, TrkB phosphorylation in mouse brain was monitored by analyzing the brain lysates using immunoblotting with anti-p-TrkB-Y-816 antibody. The ratios of p-TrK/total TrkB were quantified (FIG. 27A). For intraperitoneal administration, 50 mg/kg of Compound I-8 or Compound I-11 were intraperitoneally injected into the mice. The brain lysates were prepared at different times (0 hr, 1 hr, 2 hr, 4 hr, and 8 hr) and were analyzed by immunoblotting with anti-p-TrkB-Y-816 antibody (FIG. 27B). Compound I-8 and Compound I-11 were dissolved in drinking water and given to mice. After 24 h, the brain lysates were prepared and analyzed by immunoblotting with anti-p-TrkB-Y-816 antibody (FIG. 27C). […] Therefore, these compounds are useful in treating various neurological or neuropsychiatric diseases as described herein.

TrkB F616A knockin mice = experiment: Kainic acid-induced neuronal apoptosis in TrkB F616A knockin mice (immunoblotting and Caspase-3 ELISA); assay type: in vivo; details: 50 mg/kg orally 2 hours before KA 20 mg/kg
Protocol: To determine whether Compound I-11 (ADPP) and Compound I-8 (DDAP) protect neurons from KA-induced apoptosis, TrkB F616A knockin mice were pretreated with inhibitor 1NMPP1 (16.6 ng/kg) 2 days before the experiment. Compound I-8 (DDAP) or Compound I-11 (ADPP) (50 mg/kg) was orally injected into the mice 2 hours before kainic acid (KA) administration (20 mg/kg). Brain lysates were analyzed by immunoblotting and Caspase-3 ELISA. […] The extent of the protective effect correlates with TrkB activation status by these compounds. Active Caspase-3 ELISA correlated with the immunoblotting results (FIG. 28B, right panel).

mice = experiment: Forced swim test; assay type: in vivo; details: for Swimming immobility: 20 mg/kg intraperitoneally, adult male mice; for Immobility time after 1NMPP1 treatment: TrkB F616A knockin mice, 1NMPP1 pretreatment
Protocol: Accumulating evidence supports that BDNF plays an essential role in mediating antidepressants' therapeutic effects. Infusion of exogenous BDNF into hippocampus or brain stem has antidepressant-like behavioral effect. A forced swim test is broadly used for screening of potential antidepressant drugs and is widely used to measure antidepressant activity. To explore whether Compound I-11 (ADPP) and Compound I-8 (DDAP) have antidepressant effects like BDNF, forced swim tests were conducted. Adult male mice (2-3 months old, n=8) were randomly submitted, without a pre-swim, to a forced swim test of 6 minutes with immobility recorded in the last 4 minutes. Mice were injected intraperitoneally with saline, Compound I-11 (20 mg/kg), or Compound I-8 (20 mg/kg). The mice were allowed to adapt to the test room for 2 days, and the mice were placed in a clear glass cylinder with a diameter of 16 cm, half-filled with clear water at 24° C.
To assess whether the behavior responses caused by catecholamine derivatives is mediated by TrkB receptor, TrkB F616A knockin mice were utilized. The mice were subjected to saline or 1NMPP1 inhibitor pretreatment.

TrkB [4] = target: T2, TrkB; experiment: Immunoblotting of TrkB phosphorylation in primary cortical neurons treated with catecholamines; assay type: cell-based; details: cortical neurons
Protocol: Primary cultured rat cortical neurons were prepared as follows. E17 rat pups were decapitated and cortex was extirpated, cross chopped and suspended by pipetting for separation in 5% fetal calf serum (FCS), 5% horse serum (HS) DMEM. The cell suspension was then centrifuged at 250×g for 5 min. This operation was repeated. Cells were seeded into polyethyleneimine-coated 10 cm^2 dishes and 12-well plates including coated-coverslips and incubated at 37° C. in 5% CO2/95% air. After 3 hours, the culture medium was changed to Neurobasal containing B-27 supplement (Invitrogen; Carlsbad, Calif.) and incubated for 4 days. For maintenance, half of the culture medium was changed to fresh Neurobasal/B27 in every 4 days. After 1 week, the dished cultured neurons were ready for use.
To explore whether monoamine neurotransmitters, including catecholamines (see, e.g., FIG. 1), could stimulate TrkB activation, hippocampal neurons were treated with 300 nM of catecholamines, serotonin, and melatonin for 30 min.

TrkB F616A [5] = target: T3, TrkB F616A (Mus musculus, UniProt P15209); experiment: TrkB phosphorylation in TrkB F616A or TrkA F592A cortical neurons pretreated with K252a or 1NMPP1; assay type: cell-based, mice
T3 construct: endogenous in cells; host or cells: primary cortical neurons from TrkB F616A knock-in mice
T3 sequence (P15209 32-821 F616A): as the sequence (P15209 32-821 F616A) above
Protocol: as §1, §2

[6] = target: T4, TrkB intracellular domain (ICD) (Homo sapiens, UniProt Q16620); experiment: In vitro binding assay with purified TrkB ICD and 3H-ligands (Scatchard plot); details: purified protein, 25° C., 30 minutes; read-out: TrkB binding constants (Scatchard plot)
T4 construct: purified ECD (extracellular domain) and ICD (intracellular domain) proteins from Trk receptors
T4 sequence (Q16620 455-822 limits assumed): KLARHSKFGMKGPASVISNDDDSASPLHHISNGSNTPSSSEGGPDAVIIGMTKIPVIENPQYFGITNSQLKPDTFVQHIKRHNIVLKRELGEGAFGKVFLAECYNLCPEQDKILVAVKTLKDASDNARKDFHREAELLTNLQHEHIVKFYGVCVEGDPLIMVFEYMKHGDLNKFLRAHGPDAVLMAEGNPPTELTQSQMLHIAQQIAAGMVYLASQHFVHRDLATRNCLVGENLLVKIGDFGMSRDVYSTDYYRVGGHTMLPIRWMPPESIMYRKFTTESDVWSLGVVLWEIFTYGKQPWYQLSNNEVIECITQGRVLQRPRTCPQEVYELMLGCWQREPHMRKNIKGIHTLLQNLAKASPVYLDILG
Protocol: Purified TrkA and TrkB ECD or ICD proteins were incubated with different ^3H-catecholamines at 25° C. for 30 minutes in 1 ml of binding buffer (50 mM Tris-HCl, pH 7.4, 100 mM NaCl, 5 nM ^3H-catecholamines (32000 cpm)). After the incubation, the reaction mixture was loaded on a Whatman glass-fiber filter (GF-B) (Whatman Inc.; Piscataway, N.J.). The mixture was washed with 3×5 ml washing buffer (50 mM Tris-HCl, pH 7.4). The dried filter paper was put into a small vial and subjected to liquid scintillation counter analysis. The value of the dissociate constant and the number of sites were obtained from Scatchard plots by using the equation r/[L]free =n/Kd−r/Kd, where r is the ratio of the concentration of bound ligand to the total protein concentration and n is the number of binding sites.
To determine whether catecholamines bind TrkB directly, an in vitro binding assay was conducted with purified ECD (extracellular domain) and ICD (intracellular domain) proteins from Trk receptors and ^3H-catecholamines. […] To determine whether the binding by catecholamines to TrkB receptor caused dimerization, GST-TrkB was co-transfected into HEK293 cells with HA-TrkB, followed by BDNF or monoamines treatment for 15 minutes.

TrkB [7] = target: T2, TrkB; experiment: TrkB activation in cortical neurons after pretreatment with antibodies, receptor antagonists, transporter inhibitors or EDTA (anti-p-TrkB-Y-816 immunoblot); assay type: cell-based
From the text: Both antidepressants and exercise increase hippocampal BDNF mRNA expression through enhanced 5-HT and/or NE neurotransmission (Siuciak et al., Pharmacol. Biochem. Behav., 56:131-137, 1997; Dias et al., Neuropharmacology, 45:553-563, 2003; Ivy et al., Pharmacol. Biochem. Behav., 75:81-88, 2003; Garza et al., Pharmacol. Biochem. Behav., 77:209-220, 2004). If catecholamines activated TrkB signaling indirectly by promoting BDNF generation, then scavenging BDNF with its specific antibody would be expected to diminish catecholamines-mediated activation of TrkB. Cultured cortical neurons were pretreated with BDNF-IgG for 30 minutes followed by exposure to BDNF (10 ng/ml) or catecholamines (100 nM) for 15 minutes. […] It was then determined whether catecholamines could activate TrkB in neurons cultured from mice carrying a null mutation of BDNF.
To further investigate the specificity of catecholamines in inducing TrkB activation, cortical neurons were pretreated with control IgG or norepinephrine IgG, a rabbit polyclonal antibody for norepinephrine, followed by catecholamines.
(§3) It was then determined whether catecholamines could activate TrkB in neurons cultured from mice carrying a null mutation of NET.
(§4) The cell lysates were analyzed by immunoblotting with anti-p-TrkB-Y-816.
as §4
A group of primary cortical neurons were pretreated with 1 mM EDTA, and another group of primary cortical neurons were not pretreated. Both groups of primary cortical neurons were then treated with either Zn (100 μM) or a catecholamine (100 nM) for 15 minutes. The neuronal cell lysates were analyzed by immunoblotting with anti-p-TrkB-Y-816 antibody.

TrkB [8] = target: T5, TrkB (Mus musculus, UniProt P15209); assay type: cell-based, mice; details: compared to wild-type control neurons
T5 construct: endogenous in cells; host or cells: primary cortical neurons from BDNF-null, TrkB +/- cross, TrkC knockout and NET -/- mice
T5 sequence (P15209 32-821): as the sequence (P15209 32-821 F616A) above, with A585F counted along it
Protocol: as §3

[9] = tested on: TrkB F616A cortical neurons; experiment: Glutamate-provoked apoptosis of TrkB F616A cortical neurons (TUNEL assay); assay type: cell-based, mice; details: 50 mM glutamate overnight
Protocol: Norepinephrine has neuroprotective activity against oxidative stress-induced neuronal apoptosis. To investigate whether this protective action by norepinephrine is mediated through TrkB, apoptosis of TrkB F616A cortical neurons was monitored. Primary cortical neurons were pretreated with inhibitors K252a or 1NMPP1 followed by overnight treatment with 50 mM glutamate.

TrkB [10] = target: TrkB (Homo sapiens, UniProt Q16620); experiment: Activation of transfected TrkB in HEK293 cells with or without DAT or NET; assay type: cell-based; set-up: expressed in transfected cells; host or cells: HEK293; details: NET transfected HEK293 cells
TrkB (Homo sapiens, UniProt Q16620), sequence (Q16620 32-822, species assumed): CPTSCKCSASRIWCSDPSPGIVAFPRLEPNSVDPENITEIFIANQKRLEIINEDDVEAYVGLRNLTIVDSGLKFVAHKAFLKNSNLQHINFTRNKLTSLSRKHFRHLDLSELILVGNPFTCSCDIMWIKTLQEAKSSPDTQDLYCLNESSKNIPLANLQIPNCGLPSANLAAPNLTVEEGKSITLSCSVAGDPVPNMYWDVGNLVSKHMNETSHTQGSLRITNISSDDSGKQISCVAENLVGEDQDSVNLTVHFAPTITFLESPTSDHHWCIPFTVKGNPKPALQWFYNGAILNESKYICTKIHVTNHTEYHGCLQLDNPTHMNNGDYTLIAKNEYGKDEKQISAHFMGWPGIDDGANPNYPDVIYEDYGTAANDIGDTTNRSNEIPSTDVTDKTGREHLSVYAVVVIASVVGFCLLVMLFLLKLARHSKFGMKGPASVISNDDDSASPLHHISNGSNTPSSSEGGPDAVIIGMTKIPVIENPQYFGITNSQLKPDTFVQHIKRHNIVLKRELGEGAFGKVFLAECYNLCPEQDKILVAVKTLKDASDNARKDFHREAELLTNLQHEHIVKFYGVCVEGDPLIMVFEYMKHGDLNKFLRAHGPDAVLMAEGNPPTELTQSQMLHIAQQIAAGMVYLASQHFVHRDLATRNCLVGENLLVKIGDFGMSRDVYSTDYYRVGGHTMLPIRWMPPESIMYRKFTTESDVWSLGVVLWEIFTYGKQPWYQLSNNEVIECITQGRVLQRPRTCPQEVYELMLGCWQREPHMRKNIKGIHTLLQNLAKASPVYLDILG

Row | Structure (SMILES) | TrkB activation by the compound after K252a or 1NMPP1 pretreatment (TrkB F616A [1]) | TrkB activation in primary cortical neurons (TrkB [2]) | Time at which TrkB activity peaked (TrkB [3]) [h] | TrkB activation in the brains of the mice (TrkB [3]) | Oral bioavailability (TrkB [3]) | Passage through the blood brain barrier (TrkB [3]; mouse, in vivo, po) | Minimal dosage required to activate TrkB (TrkB [3]) [mg/kg] | TrkB activation in mouse brains (TrkB [3]) | Kainic acid (KA)-provoked neuronal cell death in mouse brain (TrkB F616A knockin mice) | Swimming immobility (mice) | Immobility time after 1NMPP1 treatment (mice) | Passage through the blood brain barrier (TrkB [3]; orally administered, mouse brain) | Effect of K252a pretreatment on catecholamine-triggered TrkB tyrosine phosphorylation (TrkB [4]) | Effect of inhibitor on catecholamine-induced TrkB activation (TrkB F616A [5]) | Kd [6] [µM] | Effect of norepinephrine IgG on the agonistic effect of the substance on TrkB activation (TrkB [7]; IgG 15 min, then 300 nM catecholamines 15 min) | Effect of norepinephrine IgG on the agonistic effect of the substance (TrkB [7]; compared to control IgG) | TrkB activation in NET -/- neurons (TrkB [8]) | Glutamate-provoked neuronal cell death [9] | Increase of stimulatory activity by overexpression of NET compared to control cells (TrkB [10])
1 | CN(C)CC(=O)c1ccc(O)c(O)c1 [Compound I-8, α-dimethylamino-3′,4′-dihydroxyacetophenone] | selectively blocked by 1NMPP1 but not K252a | prominently activated TrkB; also recorded: prominent stimulatory effect | 8 | potently activated TrkB | orally bio-available | can pass through the blood brain barrier | 20 | potently activate TrkB | potently suppress; also recorded: robustly repressed | significantly decreased | no significant effect | – | – | – | – | – | – | – | – | –
2 | CC(N)C(=O)c1ccc(O)c(O)c1 (stereo not drawn) [Compound I-11, 2-amino-3′,4′-dihydroxy-propiophenone] | selectively blocked by 1NMPP1 but not K252a | prominently activated TrkB; also recorded: prominent stimulatory effect | 8 | potently activated TrkB | orally bio-available | – | 10 | potently activate TrkB | potently suppress; also recorded: robustly repressed | significantly decreased | still active in decreasing immobility | can pass through the blood brain barrier | – | – | – | – | – | – | – | –
3 | COC(=O)[C@@]1(O)C[C@H]2O[C@]1(C)n1c3ccccc3c3c4c(c5c6ccccc6n2c5c31)C(=O)NC4 [Compound K252a] | – | – | – | – | – | – | – | – | – | – | – | – | robustly blocked | robustly inhibited | – | – | – | – | – | –
4 | NC[C@H](O)c1ccc(O)c(O)c1 [norepinephrine] | – | – | – | – | – | – | – | – | – | – | – | – | – | – | 98 | selectively inhibited | selectively neutralized | completely blocked | robustly suppressed | approximately 100 fold
